The results in this text go back to US12428424B2, “Estrogen receptor-modulating compounds” (RADIUS PHARMACEUTICALS, INC., priority 2019, dated 2025).

The subject of one assay is E2-induced increase in uterine weight. Kind of assay: Immature rat uterine assay. Particulars: immature rats, oral dose of 3 mg/kg in combination with E2 (0.01 mg/kg), once daily for three days. It is filed as in vivo, Sprague-Dawley rat. The protocol:
Immature Rat Uterine Assay
Sprague-Dawley rat pups were weaned at 19 days of age, randomized into groups (n=6), and administered vehicle (aqueous 20% HPBCD, 10% PEG400 in H2O), E2 (0.01 mg/kg), test compounds (0.1 mg/kg-3 mg/kg) in combination with E2 (0.01 mg/kg), either by subcutaneous injection or by oral gavage, once daily for three consecutive days. Twenty-four hours after the final dose, all animals were killed by carbon dioxide inhalation. Body weights and wet uterine weights were recorded for each animal. GraphPadPrism 6.0 software was used to analyze data.
As to `Cc1ccccc1-c1c(F)c2c3cn[nH]c3ccc2n1Cc1ccc(CCNCCCF)cc1F` [Compound D-105, 3-fluoro-N-(3-fluoro-4-((8-fluoro-7-(o-tolyl)pyrrolo[3,2-e]indazol-6(3H)-yl)methyl)phenethyl)propan-1-amine], the wet uterine weight entry is on record as “suppressed wet uterine weight to baseline”.

For a further assay, the system named is MCF-7 cells. Kind of assay: MCF-7 Proliferation Inhibition Assay (E2-induced proliferation, CellTiterGlo). The assay is classed as cell-based. To be noted: Homo sapiens, MCF7, 168 h, 10 pM dose of E2, 7 days incubation. The protocol:
Proliferation Assay in MCF-7 and T47 D Cells
MCF-7 and T47D cells were stripped for 3 days in phenol red-free RPMI1640 media containing 10% charcoal-stripped fetal bovine serum (CS-FBS) and 1% Penicillin/streptomycin (P/S). Cells (volume of 90 μl/well) were seeded in 96 well plates at a density of 2500 cells/well for MCF-7 cells and 1500 cells/well for T47D cells. On the following day, plates were treated with the test compounds (10× concentration in media, volume of 10 μl/well added) both in the absence and in the presence of two doses of E2 (10 pM and 1 nM). The cells were incubated with test compounds for 7 days. The viability of the cells was assessed using CellTiterGlo (Promega, Cat #G7573) according to the manufacturer's instructions. Growth inhibition curves and IC50 values were calculated using the GraphPadPrism 6.0 software. Data values shown in Table 1 were obtained using the 10 pM dose of E2.
In the case of `Cc1ccccc1-c1c(F)c2c3cn[nH]c3ccc2n1Cc1ccc(CCNCCCF)cc1F` [Compound D-105, 3-fluoro-N-(3-fluoro-4-((8-fluoro-7-(o-tolyl)pyrrolo[3,2-e]indazol-6(3H)-yl)methyl)phenethyl)propan-1-amine], the IC50 is below 1 nM.
As for `Cc1ccccc1-c1c(F)c2c3cn[nH]c3ccc2n1Cc1c(F)cc(CCNCCCF)cc1F` [Compound D-106, N-(3,5-difluoro-4-((8-fluoro-7-(o-tolyl)pyrrolo[3,2-e]indazol-6(3H)-yl)methyl)phenethyl)-3-fluoropropan-1-amine], the IC50 is below 1 nM.
`Cc1ccccc1-c1c(F)c2c3c(F)n[nH]c3ccc2n1Cc1ccc(CCNCCCF)cc1` [Compound D-107, N-(4-((1,8-difluoro-7-(o-tolyl)pyrrolo[3,2-e]indazol-6(3H)-yl)methyl)phenethyl)-3-fluoropropan-1-amine] had an IC50 below 1 nM.
The same measure, in the same setting: the figure for `Cc1ccccc1-c1cc2c3c(F)n[nH]c3ccc2n1Cc1ccc(CCNCCCF)cc1F` [Compound D-108, 3-Fluoro-N-(3-fluoro-4-((1-fluoro-7-(o-tolyl)pyrrolo[3,2-e]indazol-6(3H)-yl)methyl)phenethyl)propan-1-amine] is below 1 nM; for `Cc1ccccc1-c1c(Cl)c2c3cn[nH]c3ccc2n1Cc1ccc(CCNCCCF)cc1` [Compound D-109, N-(4-((8-Chloro-7-(o-tolyl)pyrrolo[3,2-e]indazol-6(3H)-yl)methyl)phenethyl)-3-fluoropropan-1-amine] it is below 1 nM.
